Source: patent US10479782B2, “Forms of lumacaftor and processes for the preparation thereof” (Mylan Laboratories LImited, priority 2015, dated 2019)

Experiments:
[1] = Storage stability, physical (PXRD analysis); format: physicochemical
Method: Amorphous lumacaftor as prepared by methods herein may be characterized as amorphous by powder X-ray diffraction (PXRD). Thus, samples of amorphous lumacaftor were analyzed by X-ray diffraction on a BRUKER D-8 Discover powder diffractometer equipped with a goniometer of θ/2θ configuration and Lynx Eye detector. The Cu-anode X-ray tube was operated at 40 kV and 30 mA. The experiments were conducted over the […] of 2.0°-50.0°, 0.030° step size, and 0.4 seconds step time.
(§1) Another aspect of the present invention provides a crystalline lumacaftor acetic acid solvate. The crystalline lumacaftor acetic acid solvate prepared by methods disclosed herein may be characterized by PXRD. Thus, PXRD analyses of the crystalline lumacaftor acetic acid solvate were carried out on a PANalytical, X'Pert PRO powder diffractometer equipped with goniometer of θ/θ configuration and X'Celerator detector. The Cu-anode X-ray tube was operated at 40 kV and 30 mA. The experiments were conducted over the 2θ range of 2.0°-50.0°, 0.030° step size, and 50 seconds step time.
as §1, with “The” for “Another aspect of the present invention provides a crystalline”, “ethyl acetate” for “acetic acid solvate. The crystalline lumacaftor acetic acid”, “the” for “the crystalline”, “ethyl acetate” for “acetic acid”, “is” for “was”, “0.0300” for “0.030°”
The physical and chemical stabilities of the crystalline lumacaftor acetic acid solvate and the crystalline lumacaftor ethyl acetate solvate were determined by storing samples of each at 40° C./75% relative humidity (RH) and at 25° C./60% RH for six months. The samples were tested for stability by PXRD analysis and for purity by HPLC analysis.
(§2) As an example, Table 1 below provides data collected on amorphous lumacaftor.
(§3) As another example, Table 2 below provides data collected on crystalline lumacaftor ethyl acetate solvate and the crystalline lumacaftor acetic acid solvate.

[2] = Storage stability, chemical (purity by HPLC analysis); format: physicochemical
Method: Thus, in addition to PXRD analyses, HPLC analyses were also performed. HPLC separations may be performed on an HPLC column and detector system, such as an Kromasil 100 C18 column (150×4.6 mm, 3.5 μm) or its equivalent using a UV detector set at 220 nm with a column oven temperature of about 30° C. A flow rate of 1.0 mL/min with an injection volume of 10 μL may be used, with a run time of approximately 35 minutes.
[…] The samples were tested for stability by PXRD analysis and for purity by HPLC analysis.
as §2, §3

[3] = storage at 25° C./60% RH, 1 months
[4] = storage at 25° C./60% RH, 2 months
[5] = storage at 25° C./60% RH, 3 months
[6] = storage at 25° C./60% RH, 15 days
[7] = storage at 25° C./60% RH, Initial
[8] = stored for 3 months at 5±3° C. and 25° C./60% relative humidity (RH)
[9] = storage at 25° C./60% RH, 6 months
[10] = storage at 40° C./75% RH, 1 months
[11] = storage at 40° C./75% RH, 2 months
[12] = storage at 40° C./75% RH, 3 months
[13] = storage at 40° C./75% RH, 6 months
[14] = storage at 40° C./75% RH, 15 days
[15] = storage at 40° C./75% RH, Initial
[16] = stored for 6 months at 25° C./60% and 40° C./75% relative humidity (RH)

Row | Compound | PXRD [1, 3] | PXRD [1, 4] | PXRD [1, 5] | PXRD [1, 6] | PXRD [1, 7] | HPLC Purity (%) [2, 3] [%] | HPLC Purity (%) [2, 4] [%] | HPLC Purity (%) [2, 5] [%] | HPLC Purity (%) [2, 6] [%] | HPLC Purity (%) [2, 7] [%] | PXRD [1, 9] | PXRD [1, 10] | PXRD [1, 11] | PXRD [1, 12] | PXRD [1, 13] | PXRD [1, 14] | PXRD [1, 15] | change in PXRD pattern on storage [1, 16] | HPLC Purity (%) [2, 9] [%] | HPLC Purity (%) [2, 10] [%] | other results
1 | Cc1ccc(NC(=O)C2(c3ccc4c(c3)OC(F)(F)O4)CC2)nc1-c1cccc(C(=O)O)c1 [Amorphous lumacaftor, 3-(6-(1-(2,2-difluorobenzo[d][1,3]dioxol-5-yl)cyclopropanecarboxamido)-3-methylpyridin-2-yl)benzoic acid] | Stable | Stable | Stable | Stable | Amorphous | 99.63 | 99.60 | 99.65 | 99.67 | 99.65 | – | – | – | – | – | – | – | – | – | – | PXRD ([1]; storage at 5 ± 3° C., 1 months): Stable; PXRD ([1]; storage at 5 ± 3° C., 2 months): Stable; PXRD ([1]; storage at 5 ± 3° C., 3 months): Stable; PXRD ([1]; storage at 5 ± 3° C., 15 days): Stable; PXRD ([1]; storage at 5 ± 3° C., Initial): Amorphous; change in PXRD pattern on storage [1, 8]: no change in PXRD pattern; HPLC Purity (%) ([2]; storage at 5 ± 3° C., 1 months): 99.61%; HPLC Purity (%) ([2]; storage at 5 ± 3° C., 2 months): 99.63%; HPLC Purity (%) ([2]; storage at 5 ± 3° C., 3 months): 99.64%; HPLC Purity (%) ([2]; storage at 5 ± 3° C., 15 days): 99.67%; HPLC Purity (%) ([2]; storage at 5 ± 3° C., Initial): 99.65%; chemical degradation on storage [2, 8]: no significant chemical degradation
2 | Cc1ccc(NC(=O)C2(c3ccc4c(c3)OC(F)(F)O4)CC2)nc1-c1cccc(C(=O)O)c1 [Lumacaftor acetic acid solvate, 3-(6-(1-(2,2-difluorobenzo[d][1,3]dioxol-5-yl)cyclopropanecarboxamido)-3-methylpyridin-2-yl)benzoic acid] | Stable | Stable | Stable | Stable | Crystalline | 99.92 | 99.92 | 99.89 | 99.92 | 99.84 | Stable | Stable | Stable | Stable | Stable | Stable | Crystalline | neither the lumacaftor ethyl acetate solvate nor the lumacaftor acetic acid solvate display any significant chemical degradation or any change in PXRD pattern | 99.93 | 99.93 | HPLC Purity (%) [2, 11]: 99.93%; HPLC Purity (%) [2, 12]: 99.89%; HPLC Purity (%) [2, 13]: 99.92%; HPLC Purity (%) [2, 14]: 99.92%; HPLC Purity (%) [2, 15]: 99.84%; chemical degradation on storage [2, 16]: neither the lumacaftor ethyl acetate solvate nor the lumacaftor acetic acid solvate display any significant chemical degradation
3 | Cc1ccc(NC(=O)C2(c3ccc4c(c3)OC(F)(F)O4)CC2)nc1-c1cccc(C(=O)O)c1 [Lumacaftor ethyl acetate solvate, 3-(6-(1-(2,2-difluorobenzo[d][1,3]dioxol-5-yl)cyclopropanecarboxamido)-3-methylpyridin-2-yl)benzoic acid] | Stable | Stable | Stable | Stable | Crystalline | 99.93 | 99.95 | 99.92 | 99.95 | 99.97 | Stable | Stable | Stable | Stable | Stable | Stable | Crystalline | neither the lumacaftor ethyl acetate solvate nor the lumacaftor acetic acid solvate display any significant chemical degradation or any change in PXRD pattern | 99.95 | 99.94 | HPLC Purity (%) [2, 11]: 99.95%; HPLC Purity (%) [2, 12]: 99.95%; HPLC Purity (%) [2, 13]: 99.95%; HPLC Purity (%) [2, 14]: 99.95%; HPLC Purity (%) [2, 15]: 99.97%; chemical degradation on storage [2, 16]: neither the lumacaftor ethyl acetate solvate nor the lumacaftor acetic acid solvate display any significant chemical degradation
